Assay results: patent publication US4952589A, “Pyridine compounds” (priority 1984, dated 1990)
Like-named read-outs stand apart in the source and are kept apart here.

Tests used:
[1] = target: T1, brain histamine H2 -receptor (Cavia porcellus, UniProt P47747); test: Inhibition of 3H-tiotidine binding to guinea pig cerebral cortex membranes
T1 construct: from tissue; host or cells: guinea pig cerebral cortex membranes

histamine H2 -receptor = target: T2, histamine H2 -receptor (Cavia porcellus, UniProt P47747); test: Inhibition of histamine-induced tachycardia in the isolated guinea-pig right atrium; assay type: cell-based
T2 construct: a spontaneously beating isolated portion of the guinea pig right atrium; from tissue; host or cells: guinea pig right atrium
Method: In the guinea pig atrium test a spontaneously beating isolated portion of the guinea pig right atrium is secured under tension (300 mg) between an anchorage and a transducer in a 15 ml tissue bath and immersed in McEwens solution with constant aeration at a temperature of 37° C. The output from the transducer is amplified. Output is in turn fed to a flat bed recorder. Measured amounts of histamine are added to the tissue bath so that the histamine concentration increases step-wise until the rate of beating reaches a maximum. The tissue bath is washed out and filled with fresh McEwens solution containing compound under test. The solution is left in contact with the tissue for 60 min. and measured amounts of histamine are added again until a maximum rate is recorded. The assay is repeated with increasing concentrations of test compound and the dose of histamine giving 50% of maximum rate is noted. A dose ratio (DR) was calculated by comparing the concentrations of histamine required to produce 50% maximum response in the absence and in the presence of the antagonist. A plot of Log DR-1 against LOG D (the concentration of compound under test) is made and the point of intersection with the Log (DR-1) ordinate is taken as the measure of the activity (pA2 value).

[2] = tested on: leptazol-induced tonic extensor spasm; test: Anticonvulsant activity: leptazol (pentylenetetrazol)-induced convulsions in mice; assay type: in vivo; conditions: subcutaneously, dose-dependent (stated for Examples 5 and 6)
[3] = target: T1, brain histamine H2 -receptor; test: Inhibition of dimaprit stimulated cyclic AMP accumulation in guinea pig hippocampal slices; assay type: cell-based
[4] = tested on: maximal electroshock seizures; test: Anticonvulsant activity: maximal electroshock seizures in mice; assay type: in vivo; conditions: subcutaneously
[5] = Δ log P (log P octanol/water minus log P cyclohexane/water)
[6] = tested on: pial artery dilatation induced by histamine; test: Cat pial artery in situ: antagonism of dilatation induced by perivascularly applied histamine; assay type: in vivo
physchem = conditions: octanol/water
[7] = tested on: leptazol-induced tonic extensor spasm; conditions: mice; cited from earlier work
[8] = tested on: bicuculline injection induced convulsions; conditions: mice; cited from earlier work
[9] = tested on: maximal electroshock seizures; conditions: mice; cited from earlier work
[10] = Blood-brain barrier penetration in urethane-anaesthetised rats (radiolabelled compound, infusion); conditions: rat, intravenous bolus then infusion, approximately 2 μM blood concentrations, at least 2 hours; separate determinations
Method: The levels of compound and inulin in the blood are monitored and the infusion maintained for at least 2 hours until equilibria (or at least approximate blood plateaux) are achieved. The rat is exsanguinated to minimise blood contamination of the brain. […] The tissues are weighed and then dissolved in a tissue solubiliser, e.g. Soluene-100 overnight at 37° C. in glass vials. […] Glacial acetic acid is added to each vial in order to neutralise the soluene and reduce chemiluminescence. Dimilume-30 (15 ml) is added as the scintillant and the vials left for 12 hours in the scintillation counter in order to further reduce chemiluminescence prior to counting for activity.

[11] = tested on: pial artery dilatation induced by histamine; conditions: cat, locally applied; Wahl & Kuschinsky; cited from earlier work
[12] = 3H-tiotidine, guinea pig cerebral cortex membranes, read-out: pKi cortex (converted)
[13] = isolated guinea pig right atrium, 37° C., 60 min contact, histamine agonist, read-out: pA2 (converted)
[14] = dimaprit stimulated cyclic AMP accumulation, guinea pig hippocampal slices, read-out: pKi (converted)

T1 sequence (P47747 whole entry): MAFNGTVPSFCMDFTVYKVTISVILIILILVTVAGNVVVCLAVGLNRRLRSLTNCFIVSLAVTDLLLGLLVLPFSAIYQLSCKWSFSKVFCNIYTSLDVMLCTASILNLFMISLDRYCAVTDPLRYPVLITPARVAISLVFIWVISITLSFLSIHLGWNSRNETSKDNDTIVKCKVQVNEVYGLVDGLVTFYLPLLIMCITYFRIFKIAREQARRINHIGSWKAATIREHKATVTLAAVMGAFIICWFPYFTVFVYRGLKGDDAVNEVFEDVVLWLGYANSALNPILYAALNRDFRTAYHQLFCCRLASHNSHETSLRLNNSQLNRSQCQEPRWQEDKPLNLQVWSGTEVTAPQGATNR
T2 sequence (P47747 whole entry): as above

| Compound | Ki [1, 12] | Kb (histamine H2 -receptor; [13]) | further results |
| --- | --- | --- | --- |
| c1cc(CN2CCCCC2)cc(OCCc2nc3ccccc3[nH]2)c1 [Example 26, 2-[2-[3-(Piperidinomethyl)phenoxy]ethyl]-1H-benzimidazole] | 3980 nM | 20000 nM | – |
| c1cc(CN2CCCCC2)cc(OCCCNc2nc3ccccc3o2)c1 [Example 1, 2-[3-[3-(Piperidinomethyl)phenoxy]propylamino]benzoxazole] | 79.4 nM | 63.1 nM | doses protecting against leptazol-induced tonic extensor spasm [2]: 10 to 100 mg/kg; Ki [3, 14]: 21.9 nM; doses protecting against maximal electroshock seizures [4]: 30 to 100 mg/kg |
| COc1cccnc1NCCCOc1cccc(CN2CCCCC2)c1 [Example 18, 2-[3-[3-(Piperidinomethyl)phenoxy]propylamino]-3-methoxypyridine] | 39.8 nM | 631 nM | – |
| c1cc(CN2CCCCC2)cc(OCCCNc2nccs2)c1 [Example 9, 2-[3-[3-(Piperidinomethyl)phenoxy]propylamino]thiazole] | 63.1 nM | 39.8 nM | Ki [3, 14]: 63.1 nM |
| CCOc1cc(NCCCOc2cccc(CN3CCCCC3)c2)nc2ccccc12 [Example 8, 2-[3-[3-(Piperidinomethyl)phenoxy]propylamino]-4-ethoxyquinoline] | 200 nM | 2000 nM | – |
| COc1cccc(NCCCOc2cccc(CN3CCCCC3)c2)n1 [Example 7, 2-[3-[3-(Piperidinomethyl)phenoxy]propylamino]-6-methoxypyridine] | 501 nM | 794 nM | – |
| c1cc(CN2CCCCC2)cc(OCCNc2nc3ccccc3s2)c1 [Example 16, 2-[2-[3-(Piperidinomethyl)phenoxy]ethylamino]benzthiazole] | 794 nM | 6310 nM | – |
| c1cncc(NCCCOc2cccc(CN3CCCCC3)c2)c1 [Example 11, 3-[3-[3-(Piperidinomethyl)phenoxy]propylamino]pyridine] | 794 nM | – | – |
| c1cc(CN2CCCCC2)cc(OCCCNc2ccc3ccccc3n2)c1 [Example 3, 2-[3-[3-(Piperidinomethyl)phenoxy]propylamino]quinoline] | 12.6 nM | 631 nM | Ki [3, 14]: 10.7 nM |
| Cn1c(NCCCOc2cccc(CN3CCCCC3)c2)nc2ccccc21 [Example 10, 2-[3-[3-(Piperidinomethyl)phenoxy]propylamino]-1-methylbenzimidazole] | 31.6 nM | 7940 nM | Ki [3, 14]: 2 nM |
| c1cc(CN2CCCCC2)cc(OCCCCc2nc3ccccc3[nH]2)c1 [Example 28, 2-[4-[3-(Piperidinomethyl)phenoxy]butyl]-1H-benzimidazole] | 39.8 nM | 126 nM | – |
| c1cc(CN2CCCCC2)cc(OCCCNc2ncnc3ccccc23)c1 [Example 19, 4-[3-[3-(Piperidinomethyl)phenoxy]propylamino]quinazoline] | 25.1 nM | 20 nM | – |
| c1cc(CN2CCCCC2)cc(OCCCNc2nc3ccccc3[nH]2)c1 [Description 1, 2-[3-[3-(Piperidinomethyl)phenoxy]propylamino]benzimidazole] | 25.1 nM | 63.1 nM | Ki [3, 14]: 37.2 nM |
| c1cc(CN2CCCCC2)cc(OCCCNc2nc3ccccc3s2)c1 [Example 5, 2-[3-[3-(Piperidinomethyl)phenoxy]propylamino]benzthiazole] | – | – | Ki [1]: 79.4 nM; doses protecting against leptazol-induced tonic extensor spasm [2]: 10 to 30 mg/kg; Ki [3]: 15.8 nM; Kb (histamine H2 -receptor): 25.1 nM; Δ log P [5]: 1.74; antagonism of pial artery dilatation induced by histamine ([6]; intravenous): antagonised the pial artery dilatation; antagonism of pial artery dilatation induced by histamine ([6]; locally applied): antagonised the pial artery dilatation; logP (physchem): 1.46; doses protecting against maximal electroshock seizures [4]: 30 to 100 mg/kg |
| c1cc(CN2CCCCC2)cc(OCCCc2nc3ccccc3[nH]2)c1 [Example 27, 2-[3-[3-(Piperidinomethyl)phenoxy]propyl]-1H-benzimidazole] | 100 nM | 316 nM | – |
| c1cc(CN2CCCCC2)cc(OCCCNc2nccc3ccccc23)c1 [Example 12, 1-[3-[3-(Piperidinomethyl)phenoxy]propylamino]isoquinoline] | 39.8 nM | 398 nM | – |
| c1ccc(NCCCOc2cccc(CN3CCCCC3)c2)nc1 [Example 6, 2-[3-[3-(Piperidinomethyl)phenoxy]propylamino]pyridine] | 100 nM | 794 nM | doses protecting against leptazol-induced tonic extensor spasm [2]: 30 to 100 mg/kg; Ki [3, 14]: 56.2 nM; logP (physchem): 2.88; doses protecting against maximal electroshock seizures [4]: 30 to 100 mg/kg |
| CN(C)Cc1cccc(OCCCNc2nc3ccccc3s2)c1 [Example 21, 2-[3-[3-(Dimethylaminomethyl)phenoxy]propylamino]benzthiazole] | 631 nM | 1260 nM | – |
| c1cc(CN2CCCCCC2)cc(OCCCNc2nc3ccccc3s2)c1 [Example 23, 2-[3-[3-(Hexahydroazepinomethyl)phenoxy]propylamino]benzthiazole] | 1260 nM | 316 nM | – |
| Cc1cc2nc(NCCCOc3cccc(CN4CCCCC4)c3)sc2cc1C [Example 24, 2-[3-[3-(Piperidinomethyl)phenoxy]propylamino]-5,6-dimethylbenzthiazole] | 398 nM | 25100 nM | – |
| c1cc(CN2CCCCC2)cc(OCCCCNc2nc3ccccc3s2)c1 [Example 17, 2-[4-[3-(Piperidinomethyl)phenoxy]butylamino]benzthiazole] | 158 nM | 126 nM | – |
| Cc1nc(NCCCOc2cccc(CN3CCCCC3)c2)sc1C [Example 14, 2-[3-[3-(Piperidinomethyl)phenoxy]propylamino]-4,5-dimethylthiazole] | 126 nM | 2510 nM | – |
| O=C1NC(=O)C(c2ccccc2)(c2ccccc2)N1 [phenytoin sodium] | – | – | antagonism of leptazol (pentylenetetrazol) convulsions, known drug [7]: antagonise; antagonism of bicuculline convulsions, known drug [8]: antagonise; antagonism of maximal electroshock (MES) convulsions, known drug [9]: antagonise |
| CN(C)CCCN1c2ccccc2CCc2ccccc21 [Imipramine] | – | – | molar ratio of compound in the brain to compound in the blood [10]: 3.5 |
| c1cc(CN2CCCCC2)cc(OCCc2c[nH]cn2)c1 [Example 25, 4(5)-[2-[3-(Piperidinomethyl)phenoxy]ethyl]imidazole] | 794 nM | 25100 nM | – |
| CN/C(=N/CCSCc1nc[nH]c1C)NC#N [cimetidine, reference compound] | – | – | antagonism of pial artery dilatation induced by histamine [11]: antagonises the pial artery dilatation; antagonism of pial artery dilatation induced by histamine ([6]; intravenous): failed to antagonise |
| c1cnc(NCCCOc2cccc(CN3CCCCC3)c2)nc1 [Example 4, 2-[3-[3-(Piperidinomethyl)phenoxy]propylamino]pyrimidine] | 3160 nM | 2000 nM | Ki [3, 14]: 22900 nM |
| c1cc(CN2CCCC2)cc(OCCCNc2nc3ccccc3s2)c1 [Example 22, 2-[3-[3-(Pyrrolidinomethyl)phenoxy]propylamino]benzthiazole] | 316 nM | 100 nM | – |
